Data as given in patent US20090311217A1, “3-SUBSTITUTED-1H-INDOLE COMPOUNDS, THEIR USE AS MTOR KINASE AND PI3 KINASE INHIBITORS, AND THEIR SYNTHESES” (priority 2008, published 2009).
Like-named read-outs stand apart in the source and are kept apart here.

Legend:
Assay type in all cases: biochemical
[1] = biological target: PI3K-delta (Homo sapiens, UniProt O00329); test: PI3K-delta fluorescence polarization assay
[2] = biological target: T1, human TOR (Homo sapiens, UniProt P42345); test: mTOR enzyme assay (DELFIA, His6-S6K substrate); settings: read-out: mTOR Kinase Avg. IC50
T1 construct: FLAG

[3] = biological target: PI3K-gamma (Homo sapiens, UniProt P48736); test: PI3K-gamma fluorescence polarization assay; settings: PI3Kγ Avg. IC50
Sequence of PI3K-gamma (P48736 whole entry, species assumed, the tested form may be a part): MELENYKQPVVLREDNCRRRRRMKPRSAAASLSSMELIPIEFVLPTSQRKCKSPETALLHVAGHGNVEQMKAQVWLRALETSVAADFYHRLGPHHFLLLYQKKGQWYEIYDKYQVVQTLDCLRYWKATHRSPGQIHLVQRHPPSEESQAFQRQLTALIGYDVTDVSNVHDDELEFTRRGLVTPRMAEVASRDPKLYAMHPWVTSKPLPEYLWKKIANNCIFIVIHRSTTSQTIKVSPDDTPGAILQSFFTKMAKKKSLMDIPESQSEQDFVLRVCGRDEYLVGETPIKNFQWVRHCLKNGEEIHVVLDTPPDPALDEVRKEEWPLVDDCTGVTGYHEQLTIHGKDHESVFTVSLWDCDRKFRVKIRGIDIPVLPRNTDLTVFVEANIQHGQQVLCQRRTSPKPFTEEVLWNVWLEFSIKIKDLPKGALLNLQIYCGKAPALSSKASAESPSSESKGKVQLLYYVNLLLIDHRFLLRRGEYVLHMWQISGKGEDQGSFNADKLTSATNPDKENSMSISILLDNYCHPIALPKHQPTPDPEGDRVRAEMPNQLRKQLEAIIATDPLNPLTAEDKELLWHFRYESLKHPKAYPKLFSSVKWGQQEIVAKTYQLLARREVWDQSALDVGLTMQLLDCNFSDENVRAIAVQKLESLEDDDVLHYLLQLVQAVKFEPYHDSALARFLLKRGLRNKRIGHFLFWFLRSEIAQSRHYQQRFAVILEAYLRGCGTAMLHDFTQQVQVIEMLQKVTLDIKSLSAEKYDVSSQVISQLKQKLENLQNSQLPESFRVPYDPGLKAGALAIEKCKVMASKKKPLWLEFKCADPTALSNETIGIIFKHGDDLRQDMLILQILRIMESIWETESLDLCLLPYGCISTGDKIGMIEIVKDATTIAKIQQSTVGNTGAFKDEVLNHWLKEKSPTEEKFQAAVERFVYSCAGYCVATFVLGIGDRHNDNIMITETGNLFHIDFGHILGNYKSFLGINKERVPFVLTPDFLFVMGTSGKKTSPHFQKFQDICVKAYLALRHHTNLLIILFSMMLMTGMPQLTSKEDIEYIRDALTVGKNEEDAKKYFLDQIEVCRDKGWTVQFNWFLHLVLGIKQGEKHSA
In short: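 FP competition read-out: PIP3 produced displaces BODIPY-TMR-IP4 (5 nM) from GST-GRP1 PH domain (100 nM). Kinase step: 5 ng enzyme, 2.5 μM diC8-PIP2, 25 μM ATP, pH 7 HEPES/MgCl2, 1 h, 25° C; EDTA stop.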

[4] = biological target: PI3K-beta (Homo sapiens, UniProt P42338); test: PI3K-beta fluorescence polarization assay; settings: read-out: PI3Kβ Avg. IC50
Sequence of PI3K-beta (P42338 whole entry, species assumed): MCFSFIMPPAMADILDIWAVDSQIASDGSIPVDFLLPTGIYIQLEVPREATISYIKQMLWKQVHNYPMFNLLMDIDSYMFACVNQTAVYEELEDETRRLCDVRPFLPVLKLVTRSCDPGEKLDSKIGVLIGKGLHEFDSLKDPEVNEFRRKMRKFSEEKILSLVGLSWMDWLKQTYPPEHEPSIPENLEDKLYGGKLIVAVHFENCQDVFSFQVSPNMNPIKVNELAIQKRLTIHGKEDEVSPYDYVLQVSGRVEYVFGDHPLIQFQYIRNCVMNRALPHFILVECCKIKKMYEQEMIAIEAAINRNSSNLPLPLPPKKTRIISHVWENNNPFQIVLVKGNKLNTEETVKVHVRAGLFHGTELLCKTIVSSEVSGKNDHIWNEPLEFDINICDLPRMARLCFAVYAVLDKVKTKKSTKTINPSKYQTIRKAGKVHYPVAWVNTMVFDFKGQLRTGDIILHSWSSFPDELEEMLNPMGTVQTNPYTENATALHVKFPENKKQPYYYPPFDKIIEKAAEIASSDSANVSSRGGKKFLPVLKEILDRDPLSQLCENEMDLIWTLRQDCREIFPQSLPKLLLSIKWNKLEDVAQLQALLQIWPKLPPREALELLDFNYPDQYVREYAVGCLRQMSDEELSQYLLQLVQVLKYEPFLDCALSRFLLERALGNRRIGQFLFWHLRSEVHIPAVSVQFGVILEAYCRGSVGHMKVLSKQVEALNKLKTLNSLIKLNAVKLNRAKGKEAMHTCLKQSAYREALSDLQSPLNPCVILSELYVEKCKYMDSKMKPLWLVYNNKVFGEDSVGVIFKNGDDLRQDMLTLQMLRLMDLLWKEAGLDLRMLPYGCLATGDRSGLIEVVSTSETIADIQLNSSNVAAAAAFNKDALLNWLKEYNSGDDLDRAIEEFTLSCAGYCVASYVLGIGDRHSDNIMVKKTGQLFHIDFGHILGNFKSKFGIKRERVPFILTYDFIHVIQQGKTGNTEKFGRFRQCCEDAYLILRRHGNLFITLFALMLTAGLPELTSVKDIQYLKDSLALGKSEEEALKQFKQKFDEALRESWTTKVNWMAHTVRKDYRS
Sequence of PI3K-beta (P27986 whole entry partner, species assumed): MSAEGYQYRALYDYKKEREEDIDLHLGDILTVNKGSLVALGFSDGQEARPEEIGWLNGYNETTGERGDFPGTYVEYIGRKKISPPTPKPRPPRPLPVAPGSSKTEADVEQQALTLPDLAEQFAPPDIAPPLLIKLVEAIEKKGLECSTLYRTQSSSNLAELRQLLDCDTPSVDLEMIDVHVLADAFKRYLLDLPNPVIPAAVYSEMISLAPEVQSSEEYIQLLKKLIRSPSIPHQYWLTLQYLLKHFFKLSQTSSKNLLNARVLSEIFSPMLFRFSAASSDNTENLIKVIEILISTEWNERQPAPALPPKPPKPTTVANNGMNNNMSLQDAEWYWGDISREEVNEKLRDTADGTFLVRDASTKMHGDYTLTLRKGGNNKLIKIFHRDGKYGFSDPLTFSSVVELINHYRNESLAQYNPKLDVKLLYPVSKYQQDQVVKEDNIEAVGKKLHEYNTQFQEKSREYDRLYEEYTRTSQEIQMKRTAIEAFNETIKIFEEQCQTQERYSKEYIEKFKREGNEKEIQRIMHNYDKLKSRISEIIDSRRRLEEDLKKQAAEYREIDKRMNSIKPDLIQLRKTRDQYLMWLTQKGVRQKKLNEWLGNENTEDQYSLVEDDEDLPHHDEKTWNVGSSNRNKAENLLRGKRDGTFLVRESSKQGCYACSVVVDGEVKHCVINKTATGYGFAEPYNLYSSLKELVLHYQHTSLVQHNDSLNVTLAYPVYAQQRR
Experimental: PI3K-Alpha, PI3K-Beta, PI3K-Gamma, and PI3K-delta Fluorescence Polarization Assay Protocols
PI3-Kinase reactions were performed in 5 mM HEPES, pH 7, 2.5 mM MgCl2, and 25 μM ATP, with diC8-PI(4,5)P2 (Echelon, Salt Lake City Utah) as substrate. Nunc 384-well black polypropylene fluorescent plates were used for PI3K assays. Reactions were quenched by the addition of EDTA to a final concentration of 10 mM. Final reaction volumes were 10 μl. For evaluation of PI3K inhibitors, 5 ng of enzyme (PI3K-alpha, beta, gamma, or delta) and 2.5 μM of substrate was used per […] reaction volume, and inhibitor concentrations ranged from 100 μM to 20 μM; the final level of DMSO in reactions never exceeded 2%. Reactions were allowed to proceed for one hour at 25° C. After 1 hour, GST-tagged GRP1 (general receptor for phosphoinositides) PH domain fusion protein was added to a final concentration of 100 nM, and BODIPY-TMRI(1,3,4,5)P4 (Echelon) was also added to a final concentration of 5 nM. Final sample volumes were 25 μl with a final DMSO concentration of 0.8%. Assay Plates were read on Perkin-Elmer Envision plate readers with appropriate filters for Tamra [BODIPY-TMRI(1,3,4,5)P4]. Data obtained were used to calculate enzymatic activity and enzyme inhibition by inhibitor compounds.

[5] = biological target: PI3K-alpha (Homo sapiens, UniProt P42336); test: PI3K-alpha fluorescence polarization assay
Sequence of PI3K-alpha (P42336 whole entry, species assumed): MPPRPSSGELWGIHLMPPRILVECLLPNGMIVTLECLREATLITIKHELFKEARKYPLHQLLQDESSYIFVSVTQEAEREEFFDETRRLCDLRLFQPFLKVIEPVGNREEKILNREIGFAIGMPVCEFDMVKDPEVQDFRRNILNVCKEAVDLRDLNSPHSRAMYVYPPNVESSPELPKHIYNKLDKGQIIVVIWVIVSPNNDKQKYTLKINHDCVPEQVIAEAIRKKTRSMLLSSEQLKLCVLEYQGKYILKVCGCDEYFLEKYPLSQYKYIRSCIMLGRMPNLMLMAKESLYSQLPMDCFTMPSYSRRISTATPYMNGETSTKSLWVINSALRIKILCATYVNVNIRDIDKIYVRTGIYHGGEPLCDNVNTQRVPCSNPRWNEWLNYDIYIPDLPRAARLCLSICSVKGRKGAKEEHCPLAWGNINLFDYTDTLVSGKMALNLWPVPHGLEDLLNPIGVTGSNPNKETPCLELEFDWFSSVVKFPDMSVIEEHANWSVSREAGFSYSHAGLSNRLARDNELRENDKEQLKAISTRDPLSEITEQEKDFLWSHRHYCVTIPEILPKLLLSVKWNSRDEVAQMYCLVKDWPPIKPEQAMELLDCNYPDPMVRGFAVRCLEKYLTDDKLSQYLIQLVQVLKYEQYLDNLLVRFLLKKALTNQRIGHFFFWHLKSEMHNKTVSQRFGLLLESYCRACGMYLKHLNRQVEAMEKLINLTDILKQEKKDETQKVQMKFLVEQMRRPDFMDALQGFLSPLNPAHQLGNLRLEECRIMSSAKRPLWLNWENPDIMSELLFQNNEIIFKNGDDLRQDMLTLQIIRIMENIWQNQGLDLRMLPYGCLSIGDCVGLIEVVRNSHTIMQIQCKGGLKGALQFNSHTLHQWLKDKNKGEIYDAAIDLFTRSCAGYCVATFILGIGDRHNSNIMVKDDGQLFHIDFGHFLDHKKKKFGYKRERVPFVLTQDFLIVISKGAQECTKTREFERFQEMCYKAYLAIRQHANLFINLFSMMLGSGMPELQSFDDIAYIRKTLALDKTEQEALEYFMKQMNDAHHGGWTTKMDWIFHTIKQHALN
Sequence of PI3K-alpha (P27986 whole entry partner, species assumed): as the sequence (P27986 whole entry partner, species assumed) above

Sequence of PI3K-delta (O00329 whole entry, species assumed): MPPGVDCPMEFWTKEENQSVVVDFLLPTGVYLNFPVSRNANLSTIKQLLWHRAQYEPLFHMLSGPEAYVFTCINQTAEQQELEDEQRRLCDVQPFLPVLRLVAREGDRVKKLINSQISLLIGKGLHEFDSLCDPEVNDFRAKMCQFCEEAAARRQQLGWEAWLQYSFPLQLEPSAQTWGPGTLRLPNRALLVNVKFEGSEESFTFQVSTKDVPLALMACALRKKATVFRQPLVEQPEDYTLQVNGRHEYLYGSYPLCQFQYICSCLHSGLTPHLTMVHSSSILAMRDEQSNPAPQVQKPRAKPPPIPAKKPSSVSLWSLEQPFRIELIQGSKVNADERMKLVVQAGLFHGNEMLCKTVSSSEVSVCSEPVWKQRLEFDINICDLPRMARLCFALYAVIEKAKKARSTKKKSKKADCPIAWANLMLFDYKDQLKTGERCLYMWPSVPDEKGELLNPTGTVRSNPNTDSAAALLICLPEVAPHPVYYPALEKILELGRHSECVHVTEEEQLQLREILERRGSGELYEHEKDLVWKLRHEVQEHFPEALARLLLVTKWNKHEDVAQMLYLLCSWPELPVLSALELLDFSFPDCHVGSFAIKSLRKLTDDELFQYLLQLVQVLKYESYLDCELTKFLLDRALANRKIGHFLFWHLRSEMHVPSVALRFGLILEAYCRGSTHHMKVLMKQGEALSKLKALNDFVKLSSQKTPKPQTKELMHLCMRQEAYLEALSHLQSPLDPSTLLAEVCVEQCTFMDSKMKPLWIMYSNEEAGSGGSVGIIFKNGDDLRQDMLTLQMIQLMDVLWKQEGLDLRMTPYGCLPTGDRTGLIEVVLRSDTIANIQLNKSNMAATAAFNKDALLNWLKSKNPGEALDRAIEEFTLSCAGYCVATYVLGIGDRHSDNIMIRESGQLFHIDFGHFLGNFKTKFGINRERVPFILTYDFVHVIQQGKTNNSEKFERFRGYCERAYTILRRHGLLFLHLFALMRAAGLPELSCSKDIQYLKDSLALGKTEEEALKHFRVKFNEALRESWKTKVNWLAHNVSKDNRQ
Sequence of PI3K-delta (P27986 whole entry partner, species assumed): as the sequence (P27986 whole entry partner, species assumed) above

| Structure (SMILES) | IC50 [2] [nM] | IC50 [3] [nM] | IC50 [4] [nM] | IC50 ([1]; read-out: PI3Kδ Avg. IC50) [nM] | IC50 ([5]; read-out: PI3Kα Avg. IC50) [nM] | IC50 [1] [nM] | IC50 ([5]; PI3Kα Avg. IC50) [nM] |
| --- | --- | --- | --- | --- | --- | --- | --- |
| COc1ccc2c(c1)c(C=C1Oc3cc(O)cc(O)c3C1=O)cn2C [Example 84, 4,6-dihydroxy-2-[(5-methoxy-1-methyl-1H-indol-3-yl)methylene]-1-benzofuran-3(2H)-one] | 65.2 | 586 | 547 | – | – | 110 | 106 |
| COc1ccc2c(c1)c(C=C1Oc3cc(O)cc(O)c3C1=O)c(C)n2C [Example 89, 4,6-dihydroxy-2-[(5-methoxy-1,2-dimethyl-1H-indol-3-yl)methylene]-1-benzofuran-3(2H)-one] | 3.5 | 54.3 | 19 | 8 | – | – | 6.9 |
| COc1ccc2c(c1)c(C=C1Oc3cc(O)cc(O)c3C1=O)c(C)n2CCCN1CCN(C)CC1 [Example 95, 4,6-dihydroxy-2-({5-methoxy-2-methyl-1-[3-(4-methylpiperazin-1-yl)propyl]-1H-indol-3-yl}methylene)-1-benzofuran-3(2H)-one] | 153 | 402 | 27 | 2 | – | – | 14.7 |
| COc1ccc2c(c1)c(C=C1Oc3cc(O)cc(O)c3C1=O)c(C)n2CCCCN1CCOCC1 [Example 97, 4,6-dihydroxy-2-{[5-methoxy-2-methyl-1-(4-morpholin-4-ylbutyl)-1H-indol-3-yl]methylene}-1-benzofuran-3(2H)-one] | < 47 | 138 | 9 | 0.9 | 8.7 | – | – |
| COc1ccc2c(c1)c(C=C1Oc3cc(O)cc(O)c3C1=O)c(C)n2CCCCN(C)C [Example 101, 2-({1-[4-(dimethylamino)butyl]-5-methoxy-2-methyl-1H-indol-3-yl}methylene)-4,6-dihydroxy-1-benzofuran-3(2H)-one] | 46 | 377 | 6.5 | 1 | 5.3 | – | – |
| COc1ccc2c(c1)c(C=C1Oc3cc(O)cc(O)c3C1=O)c(C)n2CCCN1CCOCC1 [Example 102, 4,6-dihydroxy-2-{[5-methoxy-2-methyl-1-(3-morpholin-4-ylpropyl)-1H-indol-3-yl]methylene}-1-benzofuran-3(2H)-one] | < 25 | 75.5 | 45 | 1.9 | 8.5 | – | – |
| COc1ccc2c(c1)c(C=C1Oc3cc(O)cc(O)c3C1=O)c(C)n2CCCN1CCN(CCN2CCOCC2)CC1 [Example 105, 4,6-dihydroxy-2-[(5-methoxy-2-methyl-1-{3-[4-(2-morpholin-4-ylethyl)piperazin-1-yl]propyl}-1H-indol-3-yl)methylene]-1-benzofuran-3(2H)-one] | 140 | 724 | 50.5 | 2 | 9.6 | – | – |
| COc1ccc2c(c1)c(C=C1Oc3cc(O)cc(O)c3C1=O)c(C)n2CCCN(C)C [Example 106, 2-({1-[3-(dimethylamino)propyl]-5-methoxy-2-methyl-1H-indol-3-yl}methylene)-4,6-dihydroxy-1-benzofuran-3(2H)-one] | 117 | 404 | 17.5 | 2 | 5.3 | – | – |
| COc1ccc2c(c1)c(C=C1Oc3cc(O)cc(O)c3C1=O)c(C)n2CCN1CCOCC1 [Example 107, 4,6-dihydroxy-2-{[5-methoxy-2-methyl-1-(2-morpholin-4-ylethyl)-1H-indol-3-yl]methylene}-1-benzofuran-3(2H)-one] | < 25 | 154 | 112 | 5.8 | – | – | 11.3 |
| COc1ccc2c(c1)c(C=C1Oc3cc(O)cc(O)c3C1=O)c(C)n2CCN(C)C [Example 110, 2-({1-[2-(dimethylamino)ethyl]-5-methoxy-2-methyl-1H-indol-3-yl}methylene)-4,6-dihydroxy-1-benzofuran-3(2H)-one] | 17.5 | 283 | 32 | 6.5 | 9.3 | – | – |

The next lines start with results.

| IC50 [2] [nM] | IC50 [3] [nM] | IC50 [4] [nM] | IC50 ([1]; read-out: PI3Kδ Avg. IC50) [nM] | IC50 ([5]; read-out: PI3Kα Avg. IC50) [nM] | Structure (SMILES) | IC50 [1] [nM] | IC50 ([5]; PI3Kα Avg. IC50) [nM] |
| --- | --- | --- | --- | --- | --- | --- | --- |
| 84.8 | 355 | 98 | 47 | 184 | COc1ccc2[nH]c(C)c(C=C3Oc4cccc(O)c4C3=O)c2c1 [Example 86, 4-hydroxy-2-[(5-methoxy-2-methyl-1H-indol-3-yl)methylene]-1-benzofuran-3(2H)-one] | – | – |
| < 21 | 73.7 | 52 | 3.5 | 9.7 | COc1ccc2c(c1)c(C=C1Oc3cc(O)cc(O)c3C1=O)c(C)n2CCCCl [Example 88, 2-{[1-(3-chloropropyl)-5-methoxy-2-methyl-1H-indol-3-yl]methylene}-4,6-dihydroxy-1-benzofuran-3(2H)-one] | – | – |
| < 50 | 9.5 | 5.5 | 1.8 | < 2.2 | COc1ccc2[nH]c(-c3cccnc3)c(C=C3Oc4cc(O)cc(O)c4C3=O)c2c1 [Example 91, 4,6-dihydroxy-2-[(5-methoxy-2-pyridin-3-yl-1H-indol-3-yl)methylene]-1-benzofuran-3(2H)-one] | – | – |
| > 5000 | 5860 | 671 | 1020 | 2240 | Cc1c(C=C2Oc3cc(O)cc(O)c3C2=O)c2ccccc2n1CCCCCl [Example 94, 2-{[1-(4-chlorobutyl)-2-methyl-1H-indol-3-yl]methylene}-4,6-dihydroxy-1-benzofuran-3(2H)-one] | – | – |
| < 31 | 238 | 10 | 2 | 11.3 | COc1ccc2c(c1)c(C=C1Oc3cc(O)cc(O)c3C1=O)c(C)n2CCCCN1CCN(C)CC1 [Example 96, 4,6-dihydroxy-2-({5-methoxy-2-methyl-1-[4-(4-methylpiperazin-1-yl)butyl]-1H-indol-3-yl}methylene)-1-benzofuran-3(2H)-one] | – | – |
| 58.5 | 248 | 10.5 | 1 | 9.4 | COc1ccc2c(c1)c(C=C1Oc3cc(O)cc(O)c3C1=O)c(C)n2CCCCN1CCN(CCO)CC1 [Example 98, 4,6-dihydroxy-2-[(1-{4-[4-(2-hydroxyethyl)piperazin-1-yl]butyl}-5-methoxy-2-methyl-1H-indol-3-yl)methylene]-1-benzofuran-3(2H)-one] | – | – |
| 72.5 | 331 | 8 | 2 | 8.3 | COc1ccc2c(c1)c(C=C1Oc3cc(O)cc(O)c3C1=O)c(C)n2CCCCN1CCC(N(C)C)C1 (stereo not drawn) [Example 99, 2-[(1-{4-[3-(dimethylamino)pyrrolidin-1-yl]butyl}-5-methoxy-2-methyl-1H-indol-3-yl)methylene]-4,6-dihydroxy-1-benzofuran-3(2H)-one] | – | – |
| 55.5 | 283 | 12.5 | 3 | 12 | COc1ccc2c(c1)c(C=C1Oc3cc(O)cc(O)c3C1=O)c(C)n2CCCCN1CCN(CCN2CCOCC2)CC1 [Example 100, 4,6-dihydroxy-2-[(5-methoxy-2-methyl-1-{4-[4-(2-morpholin-4-ylethyl)piperazin-1-yl]butyl}-1H-indol-3-yl)methylene]-1-benzofuran-3(2H)-one] | – | – |
| 108 | 108 | 22 | 2 | 6.6 | COc1ccc2c(c1)c(C=C1Oc3cc(O)cc(O)c3C1=O)c(C)n2CCCN1CCN(CCO)CC1 [Example 103, 4,6-dihydroxy-2-[(1-{3-[4-(2-hydroxyethyl)piperazin-1-yl]propyl}-5-methoxy-2-methyl-1H-indol-3-yl)methylene]-1-benzofuran-3(2H)-one] | – | – |
| 130 | 162 | 19 | 2.3 | 5.7 | COc1ccc2c(c1)c(C=C1Oc3cc(O)cc(O)c3C1=O)c(C)n2CCCN1CCC(N(C)C)C1 (stereo not drawn) [Example 104, 2-[(1-{3-[3-(dimethylamino)pyrrolidin-1-yl]propyl}-5-methoxy-2-methyl-1H-indol-3-yl)methylene]-4,6-dihydroxy-1-benzofuran-3(2H)-one] | – | – |
| < 23 | 321 | 18 | 2.8 | 4.3 | COc1ccc2c(c1)c(C=C1Oc3cc(O)cc(O)c3C1=O)c(C)n2CCN1CCN(CCO)CC1 [Example 109, 4,6-dihydroxy-2-[(1-{2-[4-(2-hydroxyethyl)piperazin-1-yl]ethyl}-5-methoxy-2-methyl-1H-indol-3-yl)methylene]-1-benzofuran-3(2H)-one] | – | – |
